Measured values from article PMC5513037, “Examining the influence of specificity ligands and ATP-competitive ligands on the overall effectiveness of bivalent kinase inhibitors” (Proteome Science, 2017).
pIC50: −log10 of the molar value.

What was measured:
Test in all cases: KAM-matrix competition in K562 lysate;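 as to 0.001 uM KAM: median log10 fold change of treatment over DMSO control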;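 as to 0.01 uM KAM: median log10 fold change of treatment over DMSO control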;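 as to 0.1 uM KAM: median log10 fold change of treatment over DMSO control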;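 as to 1 uM KAM: median log10 fold change of treatment over DMSO control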;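 as to 10 uM KAM: median log10 fold change of treatment over DMSO control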
Type in all cases: binding
DYRK1A = biological target: T1, DYRK1A (Homo sapiens, UniProt Q13627)
T1 construct: endogenous in cells; host or cells: K562
Method: (§1) Supplement 12953_2017_125_MOESM1_ESM.zip/MS_Supp Info.xlsx, sheet "KAM" | column: 10 uM KAM; 1 uM KAM; 0.1 uM KAM; 0.01 uM KAM; 0.001 uM KAM; RB50

PKN3 = biological target: T2, PKN3 (Homo sapiens, UniProt Q6P5Z2);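 as to 0.001 uM KAM: median log10 fold change of treatment over DMSO control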;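 as to 0.01 uM KAM: median log10 fold change of treatment over DMSO control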;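 as to 0.1 uM KAM: median log10 fold change of treatment over DMSO control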;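 as to 1 uM KAM: median log10 fold change of treatment over DMSO control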;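 as to 10 uM KAM: median log10 fold change of treatment over DMSO control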
T2 construct: endogenous in cells; host or cells: K562
T2 sequence (Q6P5Z2 whole entry): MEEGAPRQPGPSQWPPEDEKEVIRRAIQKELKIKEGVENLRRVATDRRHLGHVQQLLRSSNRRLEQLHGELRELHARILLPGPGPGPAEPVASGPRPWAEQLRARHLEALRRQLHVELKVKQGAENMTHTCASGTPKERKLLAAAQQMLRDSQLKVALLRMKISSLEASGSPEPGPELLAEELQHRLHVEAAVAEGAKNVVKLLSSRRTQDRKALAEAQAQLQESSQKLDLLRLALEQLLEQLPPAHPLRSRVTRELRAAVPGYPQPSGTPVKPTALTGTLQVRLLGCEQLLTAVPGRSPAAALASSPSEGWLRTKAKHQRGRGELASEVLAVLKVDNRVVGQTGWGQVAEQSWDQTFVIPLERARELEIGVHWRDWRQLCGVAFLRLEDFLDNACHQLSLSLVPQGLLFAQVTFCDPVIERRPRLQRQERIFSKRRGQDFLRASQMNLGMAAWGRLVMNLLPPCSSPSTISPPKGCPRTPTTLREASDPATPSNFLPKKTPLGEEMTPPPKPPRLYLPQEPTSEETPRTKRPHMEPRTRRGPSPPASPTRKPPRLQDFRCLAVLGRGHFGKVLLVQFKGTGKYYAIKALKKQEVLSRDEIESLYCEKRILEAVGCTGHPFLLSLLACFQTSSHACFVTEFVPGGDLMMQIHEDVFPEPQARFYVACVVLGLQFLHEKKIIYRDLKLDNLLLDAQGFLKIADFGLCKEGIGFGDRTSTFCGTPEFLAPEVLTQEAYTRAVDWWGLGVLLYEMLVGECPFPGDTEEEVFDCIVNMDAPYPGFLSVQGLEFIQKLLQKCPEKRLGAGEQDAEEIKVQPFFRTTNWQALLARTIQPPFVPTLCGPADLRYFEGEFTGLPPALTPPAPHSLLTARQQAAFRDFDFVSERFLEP
Method: as §1

KIT = biological target: T3, KIT (Homo sapiens, UniProt P10721);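 as to 0.001 uM KAM: median log10 fold change of treatment over DMSO control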;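 as to 0.01 uM KAM: median log10 fold change of treatment over DMSO control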;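 as to 0.1 uM KAM: median log10 fold change of treatment over DMSO control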;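 as to 1 uM KAM: median log10 fold change of treatment over DMSO control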;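 as to 10 uM KAM: median log10 fold change of treatment over DMSO control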
T3 construct: endogenous in cells; host or cells: K562 cells (combined S0.8 and P0.8 lysate)
T3 sequence (P10721 26-976): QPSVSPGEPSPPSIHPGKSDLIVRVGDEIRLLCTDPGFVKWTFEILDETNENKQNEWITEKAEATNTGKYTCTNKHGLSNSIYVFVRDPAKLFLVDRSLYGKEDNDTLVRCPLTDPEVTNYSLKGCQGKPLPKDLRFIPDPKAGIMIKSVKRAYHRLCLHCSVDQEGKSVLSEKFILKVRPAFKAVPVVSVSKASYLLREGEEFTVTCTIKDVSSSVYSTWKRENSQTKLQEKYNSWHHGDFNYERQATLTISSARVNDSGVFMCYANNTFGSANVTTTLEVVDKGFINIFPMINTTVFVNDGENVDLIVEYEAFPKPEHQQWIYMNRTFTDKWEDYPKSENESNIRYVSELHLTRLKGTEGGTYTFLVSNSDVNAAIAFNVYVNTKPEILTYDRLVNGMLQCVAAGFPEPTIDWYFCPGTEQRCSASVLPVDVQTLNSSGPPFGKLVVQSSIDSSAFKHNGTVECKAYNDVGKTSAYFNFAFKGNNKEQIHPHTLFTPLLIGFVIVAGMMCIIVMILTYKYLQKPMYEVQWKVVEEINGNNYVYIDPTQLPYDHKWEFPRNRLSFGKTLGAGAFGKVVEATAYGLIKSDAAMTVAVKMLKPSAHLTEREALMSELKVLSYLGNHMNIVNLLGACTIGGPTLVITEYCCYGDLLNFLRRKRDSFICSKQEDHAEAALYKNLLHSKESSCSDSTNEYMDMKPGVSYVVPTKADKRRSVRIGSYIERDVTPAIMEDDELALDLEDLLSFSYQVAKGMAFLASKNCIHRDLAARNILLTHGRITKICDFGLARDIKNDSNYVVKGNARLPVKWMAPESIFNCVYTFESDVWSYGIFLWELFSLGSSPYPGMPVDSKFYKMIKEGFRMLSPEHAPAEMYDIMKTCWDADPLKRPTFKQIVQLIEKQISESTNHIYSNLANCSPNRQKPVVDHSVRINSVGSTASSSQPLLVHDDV
Method: as §1

BRD4 = biological target: T4, BRD4 (Homo sapiens, UniProt O60885);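 as to 0.001 uM KAM: median log10 fold change of treatment over DMSO control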;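 as to 0.01 uM KAM: median log10 fold change of treatment over DMSO control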;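 as to 0.1 uM KAM: median log10 fold change of treatment over DMSO control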;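 as to 1 uM KAM: median log10 fold change of treatment over DMSO control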;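 as to 10 uM KAM: median log10 fold change of treatment over DMSO control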
T4 construct: endogenous in cells; host or cells: K562
Method: as §1

KSR1 = biological target: T5, KSR1 (Homo sapiens, UniProt Q8IVT5);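 as to 0.001 uM KAM: median log10 fold change of treatment over DMSO control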;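 as to 0.01 uM KAM: median log10 fold change of treatment over DMSO control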;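 as to 0.1 uM KAM: median log10 fold change of treatment over DMSO control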;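 as to 1 uM KAM: median log10 fold change of treatment over DMSO control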;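 as to 10 uM KAM: median log10 fold change of treatment over DMSO control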
T5 construct: endogenous in cells; host or cells: K562
T5 sequence (Q8IVT5 1-923): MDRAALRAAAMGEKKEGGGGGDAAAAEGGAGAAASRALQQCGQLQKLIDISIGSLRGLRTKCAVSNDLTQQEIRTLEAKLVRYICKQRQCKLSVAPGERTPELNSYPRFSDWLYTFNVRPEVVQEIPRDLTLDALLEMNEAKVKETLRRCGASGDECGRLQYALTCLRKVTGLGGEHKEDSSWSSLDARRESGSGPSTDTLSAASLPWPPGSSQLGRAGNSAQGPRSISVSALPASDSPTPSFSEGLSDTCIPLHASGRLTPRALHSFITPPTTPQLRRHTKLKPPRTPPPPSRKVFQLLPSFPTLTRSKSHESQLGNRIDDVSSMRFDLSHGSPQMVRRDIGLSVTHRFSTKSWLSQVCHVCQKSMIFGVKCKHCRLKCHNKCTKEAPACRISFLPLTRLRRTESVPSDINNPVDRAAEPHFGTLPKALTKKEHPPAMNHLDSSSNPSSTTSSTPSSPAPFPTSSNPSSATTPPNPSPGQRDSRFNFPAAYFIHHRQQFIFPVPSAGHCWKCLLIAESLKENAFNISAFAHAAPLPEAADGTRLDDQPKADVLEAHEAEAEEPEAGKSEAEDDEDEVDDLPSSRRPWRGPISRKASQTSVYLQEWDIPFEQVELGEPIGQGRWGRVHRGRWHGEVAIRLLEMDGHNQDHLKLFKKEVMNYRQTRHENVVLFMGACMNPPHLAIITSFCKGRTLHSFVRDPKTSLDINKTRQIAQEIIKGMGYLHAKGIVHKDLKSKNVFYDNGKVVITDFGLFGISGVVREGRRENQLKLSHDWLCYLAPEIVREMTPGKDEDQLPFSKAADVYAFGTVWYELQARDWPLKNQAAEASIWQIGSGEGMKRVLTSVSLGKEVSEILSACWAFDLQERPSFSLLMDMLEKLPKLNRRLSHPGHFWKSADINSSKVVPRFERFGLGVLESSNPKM
Method: as §1

JAK3 = biological target: T6, JAK3 (Homo sapiens, UniProt P52333);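 as to 0.001 uM KAM: median log10 fold change of treatment over DMSO control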;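 as to 0.01 uM KAM: median log10 fold change of treatment over DMSO control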;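 as to 0.1 uM KAM: median log10 fold change of treatment over DMSO control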;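 as to 1 uM KAM: median log10 fold change of treatment over DMSO control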;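 as to 10 uM KAM: median log10 fold change of treatment over DMSO control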
T6 construct: endogenous in cells; host or cells: K562
T6 sequence (P52333 1-1124): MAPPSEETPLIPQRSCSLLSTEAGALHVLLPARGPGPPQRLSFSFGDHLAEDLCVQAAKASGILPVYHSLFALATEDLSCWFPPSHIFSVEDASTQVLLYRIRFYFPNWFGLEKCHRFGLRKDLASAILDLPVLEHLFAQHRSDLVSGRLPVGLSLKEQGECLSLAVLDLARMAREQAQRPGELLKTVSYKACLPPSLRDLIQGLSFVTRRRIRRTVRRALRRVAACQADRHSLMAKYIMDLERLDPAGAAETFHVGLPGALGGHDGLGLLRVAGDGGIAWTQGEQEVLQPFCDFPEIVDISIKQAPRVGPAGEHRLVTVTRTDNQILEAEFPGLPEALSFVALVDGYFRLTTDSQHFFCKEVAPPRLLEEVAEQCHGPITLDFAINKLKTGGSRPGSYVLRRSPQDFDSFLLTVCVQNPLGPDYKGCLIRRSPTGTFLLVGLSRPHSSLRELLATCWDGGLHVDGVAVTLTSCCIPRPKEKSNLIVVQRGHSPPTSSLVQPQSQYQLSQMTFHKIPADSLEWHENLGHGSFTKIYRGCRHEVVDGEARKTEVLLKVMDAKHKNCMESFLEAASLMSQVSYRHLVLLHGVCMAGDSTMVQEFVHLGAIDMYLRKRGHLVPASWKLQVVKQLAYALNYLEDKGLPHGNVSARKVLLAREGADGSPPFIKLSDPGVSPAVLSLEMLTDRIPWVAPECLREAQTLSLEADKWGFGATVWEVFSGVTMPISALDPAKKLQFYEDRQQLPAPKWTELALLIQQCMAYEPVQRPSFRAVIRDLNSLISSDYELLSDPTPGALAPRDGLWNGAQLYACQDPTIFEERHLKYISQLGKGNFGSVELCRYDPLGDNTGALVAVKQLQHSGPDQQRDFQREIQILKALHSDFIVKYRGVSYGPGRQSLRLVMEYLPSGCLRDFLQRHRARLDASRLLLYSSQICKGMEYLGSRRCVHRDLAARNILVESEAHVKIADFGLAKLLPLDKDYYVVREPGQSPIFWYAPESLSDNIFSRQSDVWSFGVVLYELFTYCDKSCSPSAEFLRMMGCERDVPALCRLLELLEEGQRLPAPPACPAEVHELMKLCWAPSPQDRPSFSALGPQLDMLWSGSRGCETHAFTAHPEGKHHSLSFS
Method: as §1

[1] = KAM 0.001-10 uM, read-out: RB50 (the source's name)

In the case of `N#CCc1ccc(Nc2nc(NCCCN)cc(Nc3cc(C4CC4)[nH]n3)n2)cc1` [KAM], the “median Log10 fold change” value (DYRK1A; 0.001 uM KAM) was -0.05439, the “median Log10 fold change” value (DYRK1A; 0.01 uM KAM) was -0.0501 and the “median Log10 fold change” value (DYRK1A; 0.1 uM KAM) was -0.184. For the same compound, the “median Log10 fold change” value (DYRK1A; 1 uM KAM) was -0.2641, the “median Log10 fold change” value (DYRK1A; 10 uM KAM) was -0.4024 and the pIC50 (DYRK1A; read-out: RB50 (the source's name)) was 5.83. For the same compound, the pIC50 (PKN3; [1]) was under 5.00, the “0.001 uM KAM” value (PKN3; relative to 0 uM KAM = 0) was 0.01928 and the “0.01 uM KAM” value (PKN3; relative to 0 uM KAM = 0) was 0.02728. The “0.1 uM KAM” value (PKN3; relative to 0 uM KAM = 0) was -0.02092, the “1 uM KAM” value (PKN3; relative to 0 uM KAM = 0) was -0.1078 and the “10 uM KAM” value (PKN3; relative to 0 uM KAM = 0) was -0.2223. For the same compound, the pIC50 (KIT; [1]) was under 5.00, the “0.001 uM KAM” value (KIT; relative to 0 uM KAM = 0) was -0.03484 and the “0.01 uM KAM” value (KIT; relative to 0 uM KAM = 0) was -0.02696. For the same compound, the “0.1 uM KAM” value (KIT; relative to 0 uM KAM = 0) was -0.08182, the “1 uM KAM” value (KIT; relative to 0 uM KAM = 0) was -0.1617 and the “10 uM KAM” value (KIT; relative to 0 uM KAM = 0) was -0.1565. The pIC50 (BRD4; [1]) was under 5.00, the “0.001 uM KAM” value (BRD4; relative to 0 uM KAM = 0) was -0.02698 and the “0.01 uM KAM” value (BRD4; relative to 0 uM KAM = 0) was 0.00122. The “0.1 uM KAM” value (BRD4; relative to 0 uM KAM = 0) was 0.04808, the “1 uM KAM” value (BRD4; relative to 0 uM KAM = 0) was 0.01224 and the “10 uM KAM” value (BRD4; relative to 0 uM KAM = 0) was -0.001488. The pIC50 (KSR1; [1]) was under 5.00, the “0.001 uM KAM” value (KSR1; relative to 0 uM KAM = 0) was -0.01848 and the “0.01 uM KAM” value (KSR1; relative to 0 uM KAM = 0) was -0.01741. The “0.1 uM KAM” value (KSR1; relative to 0 uM KAM = 0) was -0.1182, the “1 uM KAM” value (KSR1; relative to 0 uM KAM = 0) was -0.1931 and the “10 uM KAM” value (KSR1; relative to 0 uM KAM = 0) was -0.2362. The pIC50 (JAK3; [1]) was under 5.00, the “0.001 uM KAM” value (JAK3; relative to 0 uM KAM = 0) was -0.04271 and the “0.01 uM KAM” value (JAK3; relative to 0 uM KAM = 0) was -0.0544. For the same compound, the “0.1 uM KAM” value (JAK3; relative to 0 uM KAM = 0) was -0.1188, the “1 uM KAM” value (JAK3; relative to 0 uM KAM = 0) was -0.2952 and the “10 uM KAM” value (JAK3; relative to 0 uM KAM = 0) was -0.1976.
